# In a melting point compilation (Tetko et al.; mined from patent text by program, amines drawn as free bases though some values may be those of a salt):
row,melting point [°C],SMILES
1,195 to 197,CNc1nc(-c2cccc(-c3cccc(SC)c3)c2)c2cc(OC)c(OC)cc2n1
2,81.8 to 83.3,COC(=O)C(Br)c1ccc(S(C)(=O)=O)cc1 (stereo unspecified)
3,102 to 105,CCC(C)Nc1cc(N2CCc3cc(OC)cc(Cl)c32)nc(C)n1 (stereo unspecified)
4,135 to 137,CC(C)(C)c1cc(-c2nn(CCO)c3ncccc23)cc(C(C)(C)C)c1O
5,156 to 162,N#Cc1ccc(Sc2cc(Cl)ccc2Cl)c(S(=O)(=O)N2CCNCC2)c1
6,264,O=C(O)c1cnn2c(C(F)(F)F)cc(-c3ccc(Cl)c(Cl)c3)nc12
7,91,Oc1ccc(Nc2nc(Cl)nc(NC3CCCCCC3)n2)cc1Cl
8,134 to 135,C#Cc1cccc(Nc2ncnc3cc(OCCOC(C)=O)c(OCCOC)cc23)c1
9,290 to 291,COc1ccc(-c2[nH]nc3c2C(=O)c2c(NC(=O)NN4CCOCC4)cccc2-3)cc1
10,145 to 155,Cc1ccc(-c2ccc(NN)nn2)c(OCC(O)CNC(C)(C)C)c1 (stereo unspecified)
11,158 to 159,COc1ccc([C@H](Cc2ccncc2)c2ccccc2)cc1O
12,119 to 121,CSCC(=O)[C@H](Cc1ccc(Cl)cc1)NC(=O)[C@H](CC(C)C)NC(=O)OCc1ccccc1
13,142 to 146,COc1cc(N)c(Cl)cc1C(=O)NCC1CCN(CCCCCNC(=O)c2ccc(C)cc2)CC1
14,252 to 253,Cc1cc(-c2nc3cccnn3c2-c2ccnc(NC(=O)c3cccc4ccccc34)c2)ccc1F
15,93 to 94,CC(C)Nc1nccc(C#C[Si](C)(C)C)n1
16,81 to 83,CCCCCc1c(C(C)C)nc(C(C)C)c(CO)c1-c1ccccc1C
17,208 to 210,CC1NC(=O)NN=C1c1ccc(OCC(=O)NCCN2CCNCC2)c(Cl)c1 (stereo unspecified)
18,212,Cc1cc(N=CN(C)C)c(C)cc1O
19,195 to 196,CC(=O)Oc1ccc(C(=O)Nc2ccc(Cl)c(NC(=O)c3ccc(C#N)cc3)c2)cc1
20,111,Cc1ccc2cc(-c3cccc4ccccc34)ccc2n1
21,128 to 132,COC(=O)N1C[C@@H]2CN(c3ccc(N4C[C@H](CNC(C)=O)OC4=O)cc3F)C[C@@H]2C1
22,140,c1ccc(-c2ncc(-c3cnc(C4CCCNC4)[nH]3)cn2)cc1 (stereo unspecified)
23,108,Nc1ccccc1SCC1=NOCN1
24,197 to 198,O=C1C(=O)c2ccc(-c3ccccc3)cc2C2=C1SCC1(CCN(Cc3ccc(F)cc3)CC1)O2

row,melting point [°C],SMILES
1,60 to 62,CCOC(=O)C(C)Oc1ccc(Oc2nc3ccc(Cl)nc3s2)cc1 (stereo unspecified)
2,126 to 127,CCOC(=O)Cc1cnc(-c2cc3cccc(N(C)S(=O)(=O)c4cccs4)c3[nH]2)s1
3,168 to 170,COc1cccc2c(=O)c(C(=O)C3CCCCC3)c[nH]c12
4,118 to 119,Cc1ccccc1P(=NC(=O)OC1CCOC1)(c1ccccc1)c1ccccc1 (stereo unspecified)
5,146 to 147,COC(=O)c1ccc(NC(=O)C(=O)c2ccc3c(c2)C(C)(C)CCC3(C)C)cc1O
6,> 300,CC(C)(C)Cn1c(=O)c(=O)[nH]c2cc([N+](=O)[O-])c(N)cc21
7,92 to 94,COC(=O)c1c(N)ccc([N+](=O)[O-])c1C
8,109 to 111,CCOC(=O)C(=Cc1cccn2cc(-c3cccc(OC)c3)nc12)N=[N+]=[N-]
9,140 to 141,CNC(=O)N1Cc2ccccc2CCC1=O
10,243 to 244,Cc1nc(N)nc(N)c1N=Nc1ccc(I)cc1
11,290 to 291,COC(=O)c1ccc2oc(-c3ccccc3O)cc(=O)c2c1
12,166 to 167,CCOCc1nc2c(N)nc3cccnc3c2n1CC1(O)CCOCC1
13,232 to 236,NC(=O)c1cc2cc(F)ccc2nc1N
14,176,Cc1cc2ncc(-c3cccc(C(F)(F)F)c3)c(N)n2n1
15,195 to 196,CCn1c2ccccc2c2ccncc21
16,137,CCC(=O)Nc1ccc(C(=O)NCCN(CC)CC)c(OC)c1
17,115 to 117,CCOc1nc2ccccc2nc1N(CC)C(=O)N1CCN(c2cc(Cl)cc(Cl)c2)CC1
18,175 to 178,CCOC(=O)C(CO)NC(=O)C(N)(CC(=O)O)NC(=O)C(C)C (stereo unspecified)
19,84 to 85,O=S(=O)(Nc1cccc(CCOCc2nc(-c3ccc(F)cc3)sc2Br)c1)C(F)(F)F
20,122 to 123,Cc1c(C)c(N)c2c(c1C)C(c1ccc(C(C)C)cc1)CO2 (stereo unspecified)
21,120 to 123,CC(=O)OC[C@H]1NC(=O)[C@H]1NC(=O)C(=NOC(C)(C)C(=O)OCc1ccc([N+](=O)[O-])cc1)c1csc(NC(=O)CCl)n1 (relative stereo)
22,105 to 106,CN(C)C(=S)SC(C[N+](=O)[O-])c1ccccc1 (stereo unspecified)
23,110 to 111,Cn1c(C(=O)c2ccc(Cc3ccc(F)cc3)o2)c(O)c(=O)n1C
24,265 to 268,Cc1cc2c(-c3ccccc3)c(C(=O)O)oc(=O)c2cc1C

row,melting point [°C],SMILES
1,292 to 294,CCOc1c(NCc2c(C)cc(C)cc2Cl)c(=O)c1=O
2,126 to 127,CC[Si](C)(C)NC(=O)c1ccc(N)cc1
3,99.6,O=C(NN=Cc1ccnc2ccccc12)c1cccnc1
4,160,c1ccc(C2=NN=C(N3CCSCC3)SC2)cc1
5,159 to 160,CN1C(=O)C(C)(C)C(=O)N(C)c2ccccc21
6,172 to 173,COCN1C(C)=C(C(=O)O)C(c2ccccc2C(F)(F)F)C(C(=O)O)=C1C
7,169 to 171,COc1ccc(-n2nc(C(F)F)cc2-c2ccc(S(C)(=O)=O)cc2)cc1Cl
8,109 to 111,Cn1nc(-c2c(F)cccc2Cl)nc1-c1ccc(OCc2ccc(C(F)(F)F)cc2F)c(Cl)c1
9,164 to 165,CC(C)n1nc(-c2cnc(N)nc2-c2cccc(C(F)(F)F)c2)ccc1=O
10,205 to 208,CSc1ncc(Oc2cccnc2)c(=O)[nH]1
11,228 to 230,O=C(O)CCC(=O)N1CCc2cc(S(=O)(=O)N3CCN(c4cccc(Cl)c4)CC3)ccc21
12,109 to 111,CCCCNC(=O)CSc1nc(Cl)cc(Cl)n1
13,83 to 85,Nc1sc2c(c1C(=O)c1ccc(-c3ccccc3)cc1)CCN(C(=O)OCc1ccccc1)C2
14,162 to 164,CCC(CC)c1nnc(S)n(N)c1=O
15,251 to 253,O=C(c1ccc(Nc2ccnc3cc(C(F)(F)F)ccc23)cc1)N1CCN(S(=O)(=O)c2ccc(F)cc2)CC1
16,141 to 142,CCOC(=O)C(C)(C)c1ccc(C(O)CCCN2CCC(C(O)(c3ccccc3)c3ccccc3)CC2)cc1 (stereo unspecified)
17,186 to 189,CC(C)(C)NC(=O)C1CCC2C3CNC4=CC(=O)CCC4(C)C3CCC12C (stereo unspecified)
18,118 to 122,CN(C)C1CCC2c3ccccc3Sc3ccc(C(F)(F)F)cc3N2C1 (stereo unspecified)
19,122 to 124,COc1ccc2[nH]c3c(c2c1)CCSCCC3
20,68 to 69.5,CCOC(=O)C=Cc1cc(C=CC(=O)OCC)cc(CO)c1
21,199,COc1ccc(N2CCN(c3ccc(-n4cnn(C(C)C(F)(F)F)c4=O)cc3)CC2)cc1 (stereo unspecified)
22,151 to 155,CCOC(=O)NNc1ccnc2c(NC(=O)c3c(Cl)cccc3Cl)cccc12
23,156 to 157,CN(C)CC(=O)N1c2ccccc2N(C)S(=O)(=O)c2ccc(C(F)(F)F)cc21
24,280,CC(C)C(=O)Nc1ccc(-c2c[nH]c(=O)cn2)cc1

row,melting point [°C],SMILES
1,128,O=C(CCl)NC(c1ccc(F)cc1)c1ccc(F)cc1
2,280 to 281,O=C(O)c1cc(C(=O)O)c(C(O)=NCCO)cc1C(O)=NCCO
3,68 to 70,C#Cc1cc(OC)c(OC)c(OC)c1
4,198 to 200,CNC(=O)NC(=O)N1CCN(c2ccccc2)CC1
5,165 to 168,COc1c(C)cc(C(=O)O)cc1-c1ccccc1
6,178 to 180,COc1cc2oc(=O)c3c(c2cc1N)CCN(CC(C)=O)C3
7,66.5 to 67.5,CCCCCCCCCCCCCCCCNc1ccc(C=O)cc1
8,240 to 243,COc1ccc(-n2c(-c3cc(-c4ccc(S(C)(=O)=O)cc4)c(N4CCOCC4)s3)nc3ccccc3c2=O)cc1
9,178 to 181,CCOC(=O)C1=C(COCCNC=O)NC(C)=C(C(=O)OC)C1c1cccc(Cl)c1Cl (stereo unspecified)
10,175 to 177,COc1cc(Br)c2oc(-c3ccc(OC)c(F)c3)nc2c1
11,> 360,Nc1nc(N)c2nc(CNc3ccc(Cl)cc3)cnc2n1
12,61 to 70,Cc1cc(Br)cnc1CCCCNc1ncc(Cc2ccc(CO)nc2)c(=O)[nH]1
13,256 to 259,CCc1c(OC)nc2nc(C(N)=O)cn2c1C
14,95,O=C(O)CC1COc2ccccc2O1 (stereo unspecified)
15,133,Cc1ncc([N+](=O)[O-])cc1Nc1nccc(-c2ccccc2)n1
16,163 to 168,CS(=O)(=O)Nc1c([N+](=O)[O-])cnn1-c1c(F)c(F)c(C(F)(F)F)c(F)c1F
17,84 to 86,C#CCOC(=O)C=Cc1csc(Cl)c1Cl
18,103 to 105,CCOC(=O)c1cc(-c2ccccn2)[nH]n1
19,193 to 195,NS(=O)(=O)c1ccc(-c2cnn(CC(F)(F)F)c(=O)c2-c2ccc(F)cc2)cc1
20,136 to 137,Cc1cccc(C2=C(c3ccc(S(C)(=O)=O)cc3)CN(C3CC3)C2=O)c1
21,173 to 175,COc1ccc(CNc2nc(N)n3nc(-c4ccco4)nc3n2)cc1OCc1ccccc1
22,136 to 138,CC(NC(=O)OC(C)(C)C)C1CCN(c2c(F)c(N)c3c(=O)[nH]c(=O)n4c3c2OCC4C)C1 (stereo unspecified)
23,62 to 64,CC(C)Oc1ccc(N2CCCNCC2)cc1

row,SMILES,melting point [°C]
1,O=C(Nc1cnc2[nH]ccc2c1)c1cc2cc(F)ccc2n1Cc1cccc(F)c1,266 to 267
2,CC1(C)C(C=C(Br)Br)C1C(=O)OCc1cccc(Oc2ccccc2)c1 (stereo unspecified),93
3,COc1ccc(Nc2nc(NC(CO)CO)nc(N(C)C3CCN(C)CC3)n2)cc1Cl,84
4,Cc1nc(-c2c(C#N)nn(-c3c(Cl)cc(C(F)(F)F)cc3Cl)c2N)cs1,226 to 228
5,Cc1[nH]c2ccc(NS(C)(=O)=O)cc2c1C1=CCN(C)CC1,176 to 184
6,Fc1ccc(-c2nc3occn3c2-c2ccnc(N[C@H]3CN4CCC3CC4)n2)cc1,217 to 218
